The source of these data is patent US10925876B2, “Methods for using triazolo-pyrazinyl soluble guanylate cyclase activators in fibrotic disorders” (Merck Sharp & Dohme Corp., priority 2016, dated 2021).

Test [1] concerns the target T1, sGC α1/β1 heterodimer (Homo sapiens, UniProt Q02108+Q02153).
T1 construct: expressed in transfected cells
T1 sequence (Q02108 1-690): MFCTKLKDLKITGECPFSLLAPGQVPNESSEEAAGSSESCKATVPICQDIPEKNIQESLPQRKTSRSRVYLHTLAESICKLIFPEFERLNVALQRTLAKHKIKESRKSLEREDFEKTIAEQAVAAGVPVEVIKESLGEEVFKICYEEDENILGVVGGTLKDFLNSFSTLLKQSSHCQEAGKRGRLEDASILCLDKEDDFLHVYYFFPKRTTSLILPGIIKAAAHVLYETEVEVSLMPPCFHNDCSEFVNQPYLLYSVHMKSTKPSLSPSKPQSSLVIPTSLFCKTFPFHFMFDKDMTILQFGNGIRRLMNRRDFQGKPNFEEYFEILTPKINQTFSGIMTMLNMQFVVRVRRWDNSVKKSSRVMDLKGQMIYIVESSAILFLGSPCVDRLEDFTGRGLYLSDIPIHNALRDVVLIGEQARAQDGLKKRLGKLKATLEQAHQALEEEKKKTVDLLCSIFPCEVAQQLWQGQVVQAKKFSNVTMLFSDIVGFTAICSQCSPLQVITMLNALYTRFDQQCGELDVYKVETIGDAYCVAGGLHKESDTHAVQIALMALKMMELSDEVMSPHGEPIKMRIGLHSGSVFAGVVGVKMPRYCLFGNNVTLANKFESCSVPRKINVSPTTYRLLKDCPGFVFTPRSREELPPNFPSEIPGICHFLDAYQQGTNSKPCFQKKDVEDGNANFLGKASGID
T1 sequence (Q02153 1-619): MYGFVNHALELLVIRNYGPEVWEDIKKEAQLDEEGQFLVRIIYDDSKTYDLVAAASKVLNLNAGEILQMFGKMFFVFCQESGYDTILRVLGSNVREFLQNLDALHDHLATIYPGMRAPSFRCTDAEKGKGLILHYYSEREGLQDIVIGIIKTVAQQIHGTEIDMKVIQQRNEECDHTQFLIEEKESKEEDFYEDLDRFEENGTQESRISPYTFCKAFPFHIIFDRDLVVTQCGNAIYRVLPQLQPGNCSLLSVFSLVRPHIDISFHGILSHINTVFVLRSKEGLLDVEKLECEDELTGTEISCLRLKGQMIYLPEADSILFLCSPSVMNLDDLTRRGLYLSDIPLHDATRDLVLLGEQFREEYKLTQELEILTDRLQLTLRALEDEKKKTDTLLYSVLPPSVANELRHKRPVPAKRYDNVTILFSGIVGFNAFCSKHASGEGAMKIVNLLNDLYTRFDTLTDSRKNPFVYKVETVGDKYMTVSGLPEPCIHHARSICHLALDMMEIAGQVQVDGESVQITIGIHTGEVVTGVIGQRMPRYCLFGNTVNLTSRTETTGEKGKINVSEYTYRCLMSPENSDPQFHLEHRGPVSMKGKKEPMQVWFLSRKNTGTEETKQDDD
Nature of the test: Cell-Based sGC Functional Assay (CASA Assay), cGMP generation in CHO-K1/sGC cells.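 Note: reference Compound A is a published heme-dependent sGC activator.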 The settings on record: maximum cGMP production of Compound A set to 100% activation, read-out: % Act. (percent activation relative to Compound A). Summed up: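 CHO-K1 cells stably expressing human sGC α1/β1, 4×10^5/mL in EBSS with 5 mM MgCl2, 10 mM HEPES, 0.05% BSA, 0.5 mM IBMX, 2.5% DMSO; compounds 1 h at 37 °C ± 1 μM DETA-NO. cGMP by HTRF, expressed as % of reference Compound A maximum; IP and max fold induction from 4P fit.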

Test [2] concerns Spontaneously hypertensive rats (SHR). Nature of the test: Acute Efficacy in Spontaneously Hypertensive Rats (SHR), telemetry blood pressure. The test is classed as in vivo, rat. The settings on record: single oral gavage. From the text:
Spontaneously hypertensive rats (SHR, male, Charles River) were implanted with DSI TA11PA-C40 telemetry device (Data Sciences, Inc., St. Paul, Minn.) under isoflurane or ketamine/metomidine anesthesia. The telemetry unit catheter was inserted into the descending aorta via the femoral artery and the telemetry device was implanted subcutaneously in the left flank area. Animals were allowed to recover from surgery for 14 days before the start of any studies. Blood pressure, heart rate, and activity signals from conscious, freely moving rats were recorded continuously for 30 seconds every 10 minutes. On the day prior to administration of compound, a single oral dose of vehicle (10% transcutol/20% Cremophor/70% water) was administered to all animals to establish baseline control data. The blood pressure lowering efficacy of compound (PO) or vehicle was evaluated following a single oral gavage. Data were collected as hourly averages, and changes in blood pressure were calculated by subtracting control baseline data on an hourly basis. Animals were maintained on normal diet with a 12 hour light-dark cycle.
Maximum peak decreases of systolic blood pressure (SBP) in SHR at a particular P.O. dose (mpk milligrams per kilogram) for the following representative compounds are provided. Category A=SBP in SHRs <20 mmHg; Category B=SBP in SHRs 20-40 mmHg; Category C=SBP in SHRs >40 mmHg.

For the compound `Nc1nc(-c2cn3ncnc3c(CCCC(F)(F)F)n2)nc2c1C(c1ccc(C(F)F)cn1)(C1CC1)C(=O)N2` (racemic) [Example 44B, 4-amino-5-cyclopropyl-5-(5-(difluoromethyl)pyridin-2-yl)-2-(8-(4,4,4-trifluorobutyl)-[1,2,4]triazolo[1,5-a]pyrazin-6-yl)-5H-pyrrolo[2,3-d]pyrimidin-6(7H)-one], the Emax in test [1] amounted to 120%. Moreover, in test [2] (P.O. 1 mpk), the “Maximum peak decrease of systolic blood pressure (SBP) in SHR, Cat.” value (from here on “Maximum peak decrease”) is on record as “B (Category B=SBP in SHRs 20-40 mmHg)”.

For `Nc1nc(-c2cn3ncnc3c(CCCC(F)(F)F)n2)nc2c1C(c1ccc(C(F)(F)F)cn1)(C1CC1)C(=O)N2` (single isomer, unassigned) [Example 2A, 4-Amino-5-cyclopropyl-2-(8-(4,4,4-trifluorobutyl)-[1,2,4]triazolo[1,5-a]pyrazin-6-yl)-5-(5-(trifluoromethyl)pyridin-2-yl)-5H-pyrrolo[2,3-d]pyrimidin-6(7H)-one], the Emax in test [1] worked out at 111%. The “Maximum peak decrease” value in test [2] (P.O. 0.3 mpk) is reported as “A (Category A=SBP in SHRs <20 mmHg)”.

For the compound `C[C@@]1(c2ccc(F)cc2)C(=O)Nc2nc(-c3cn4ncnc4c(CCC(F)(F)C(F)(F)F)n3)nc(N)c21` [Example 1A, (S)-4-Amino-5-(4-fluorophenyl)-5-methyl-2-(8-(3,3,4,4,4-pentafluorobutyl)-[1,2,4]triazolo[1,5-a]pyrazin-6-yl)-5H-pyrrolo[2,3-d]pyrimidin-6(7H)-one], the Emax in test [1] was found to be 196%. Besides, the “Maximum peak decrease” value in test [2] (P.O. 0.3 mpk) is “C (Category C=SBP in SHRs >40 mmHg)”.

For `CC1(c2ccc(Cl)cn2)C(=O)Nc2nc(-c3cn4ncnc4c(CCC(F)(F)C(F)(F)F)n3)nc(N)c21` (stereo not shown) [Example 3A, 4-amino-5-(5-chloropyridin-2-yl)-5-methyl-2-(8-(3,3,4,4,4-pentafluorobutyl)-[1,2,4]triazolo[1,5-a]pyrazin-6-yl)-5H-pyrrolo[2,3-d]pyrimidin-6(7H)-one], in test [1], the Emax turned out to be 161%. In addition, the “Maximum peak decrease” value in test [2] (P.O. 0.3 mpk) was “B (Category B=SBP in SHRs 20-40 mmHg)”.

For the compound `CC1(c2ccc(F)cn2)C(=O)Nc2nc(-c3cn4ncnc4c(CCC(F)(F)C(F)(F)F)n3)nc(N)c21` (stereo not shown) [Example 4B, 4-amino-5-(5-fluoropyridin-2-yl)-5-methyl-2-(8-(3,3,4,4,4-pentafluorobutyl)-[1,2,4]triazolo[1,5-a]pyrazin-6-yl)-5H-pyrrolo[2,3-d]pyrimidin-6(7H)-one], in test [1], the Emax was determined as 157%. Also, in test [2] (P.O. 0.3 mpk), the “Maximum peak decrease” value was “C (Category C=SBP in SHRs >40 mmHg)”.

Turning to `Nc1nc(-c2cn3ncnc3c(CCC(F)(F)C(F)(F)F)n2)nc2c1C(c1ccc(Cl)cn1)(C1CC1)C(=O)N2` (stereo not shown) [Example 7A, 4-amino-5-(5-chloropyridin-2-yl)-5-cyclopropyl-2-(8-(3,3,4,4,4-pentafluorobutyl)-[1,2,4]triazolo[1,5-a]pyrazin-6-yl)-5H-pyrrolo[2,3-d]pyrimidin-6(7H)-one], the Emax in test [1] turned out to be 185%. For the same compound, the “Maximum peak decrease” value in test [2] (P.O. 0.3 mpk) is given as “B (Category B=SBP in SHRs 20-40 mmHg)”.

In the case of `Nc1nc(-c2cn3ncnc3c(CCC(F)(F)C(F)(F)F)n2)nc2c1C(c1cncc(F)c1)(C1CC1)C(=O)N2` (stereo not shown) [Example 8B, 4-amino-5-cyclopropyl-5-(5-fluoropyridin-3-yl)-2-(8-(3,3,4,4,4-pentafluorobutyl)-[1,2,4]triazolo[1,5-a]pyrazin-6-yl)-5H-pyrrolo[2,3-d]pyrimidin-6(7H)-one], the Emax in test [1] is 177%. Further, the “Maximum peak decrease” value in test [2] (P.O. 3 mpk) was “B (Category B=SBP in SHRs 20-40 mmHg)”.

Take `CC1(c2cncc(F)c2)C(=O)Nc2nc(-c3cn4ncnc4c(CCC(F)(F)C(F)(F)F)n3)nc(N)c21` (stereo not shown) [Example 9A, 4-amino-5-(5-fluoropyridin-3-yl)-5-methyl-2-(8-(3,3,4,4,4-pentafluorobutyl)-[1,2,4]triazolo[1,5-a]pyrazin-6-yl)-5H-pyrrolo[2,3-d]pyrimidin-6(7H)-one]: the Emax in test [1] came to 119%. Also, the “Maximum peak decrease” value in test [2] (P.O. 1 mpk) is “B (Category B=SBP in SHRs 20-40 mmHg)”.

With `CC1(c2ccccn2)C(=O)Nc2nc(-c3cn4ncnc4c(CCC(F)(F)C(F)(F)F)n3)nc(N)c21` (stereo not shown) [Example 11B, 4-amino-5-methyl-2-(8-(3,3,4,4,4-pentafluorobutyl)-[1,2,4]triazolo[1,5-a]pyrazin-6-yl)-5-(pyridin-2-yl)-5H-pyrrolo[2,3-d]pyrimidin-6(7H)-one], the Emax in test [1] stood at 208%. The “Maximum peak decrease” value in test [2] (P.O. 0.3 mpk) is listed as “B (Category B=SBP in SHRs 20-40 mmHg)”.

For the compound `CC1(c2ccccc2)C(=O)Nc2nc(-c3cn4ncnc4c(CCC(F)(F)C(F)(F)F)n3)nc(N)c21` (stereo not shown) [Example 12B, 4-amino-5-methyl-2-(8-(3,3,4,4,4-pentafluorobutyl)-[1,2,4]triazolo[1,5-a]pyrazin-6-yl)-5-phenyl-5H-pyrrolo[2,3-d]pyrimidin-6(7H)-one], the Emax in test [1] was found to be 122%. The “Maximum peak decrease” value in test [2] (P.O. 0.1 mpk) was “B (Category B=SBP in SHRs 20-40 mmHg)”.

As to `CC1(c2ccc(C3CC3)nc2)C(=O)Nc2nc(-c3cn4ncnc4c(CCC(F)(F)C(F)(F)F)n3)nc(N)c21` (stereo not shown) [Example 13B, 4-amino-5-(6-cyclopropylpyridin-3-yl)-5-methyl-2-(8-(3,3,4,4,4-pentafluorobutyl)-[1,2,4]triazolo[1,5-a]pyrazin-6-yl)-5H-pyrrolo[2,3-d]pyrimidin-6(7H)-one], the Emax in test [1] stood at 109%. Besides, in test [2] (P.O. 1 mpk), the “Maximum peak decrease” value is recorded as “B (Category B=SBP in SHRs 20-40 mmHg)”.

As for `CC1(c2ccc(C#N)cn2)C(=O)Nc2nc(-c3cn4ncnc4c(CCC(F)(F)C(F)(F)F)n3)nc(N)c21` (stereo not shown) [Example 18A], in test [1], the Emax worked out at 75%. The “Maximum peak decrease” value in test [2] (P.O. 0.3 mpk) is “C (Category C=SBP in SHRs >40 mmHg)”.

`CC(C)n1cc(C2(C)C(=O)Nc3nc(-c4cn5ncnc5c(CCC(F)(F)C(F)(F)F)n4)nc(N)c32)nn1` (stereo not shown) [Example 20A, 4-amino-5-(1-isopropyl-1H-1,2,3-triazol-4-yl)-5-methyl-2-(8-(3,3,4,4,4-pentafluorobutyl)-[1,2,4]triazolo[1,5-a]pyrazin-6-yl)-5H-pyrrolo[2,3-d]pyrimidin-6(7H)-one]: in test [1], the Emax turned out to be 131%. Also, the “Maximum peak decrease” value in test [2] (P.O. 1 mpk) is “C (Category C=SBP in SHRs >40 mmHg)”.

Turning to `CC1(c2ccc(C(F)(F)F)cn2)C(=O)Nc2nc(-c3cn4ncnc4c(CCCC(F)(F)F)n3)nc(N)c21` (stereo not shown) [Example 25B, 4-amino-5-methyl-2-(8-(4,4,4-trifluorobutyl)-[1,2,4]triazolo[1,5-a]pyrazin-6-yl)-5-(5-(trifluoromethyl)pyridin-2-yl)-5H-pyrrolo[2,3-d]pyrimidin-6(7H)-one], the Emax in test [1] was 131%. The “Maximum peak decrease” value in test [2] (P.O. 0.3 mpk) was “B (Category B=SBP in SHRs 20-40 mmHg)”.
